The assay relates to HHV-6. The assay can be described thus: HHV-6 ELISA in HSB-2 cells. Type of assay: cell-based, human herpes virus 6 (HHV 6). The note with it: Homo sapiens, HSB2. The procedure: (c) HHV-6. In this case, enzyme-linked immunosorbent assay (ELISA) was performed in covalent amine plates (Costar, Cambridge, Mass.). The plates were activated by the addition of a homobifunctional crosslinking agent, bis(sulfosuccinimidyl) suberate, which was dissolved at 1 mg/mL in 30 mL of phosphate buffered saline (PBS: 137 mM NaCl, 2.7 mM KCl, 4.3 mM Na2HPO4, 1.4 mM KH2PO4, pH 7.4) and 300 μL of the crosslinker was added to each well in the covalent plate. The crosslinker reacted with the amine function on the plate for 30 min at room temperature. The byproduct, sodium N-hydroxysuccinimide sulfite, was removed by decanting and washing the plate twice with PBS. Samples consisting of 150 μl of mixed suspended HSB2 cells from the original drug-treated plate were solubilized in an equal volume of 10% Triton X-100 in coating buffer (15 mM Na2CO3, […] NaHCO3, pH 9.6). The plate was covered and then incubated for 1 h at 37° C. in a 5% CO2 atmosphere. These binding conditions facilitated covalent attachment of the antigen to the free end of the crosslinker.
After covalent binding, the antigen solution was decanted and the plate was washed six times in HEPES buffered saline (Shipman, C., Jr., Proc. Soc. Exp. Biol. 130:305-310 (1969)) with 0.05% Tween 20 (HBS-T ), soaking for three min for each wash. […] Absorbance in each well was determined at 450/570 nm.
(An ELISA detects its analyte on a solid surface through an enzyme-linked reagent.)

One may read the IC50 as the midpoint of a concentration-inhibition curve. Read a high IC50 as weaker potency.

The compound `O=C(O)P(=O)(O)O` [Foscarnet, reference compound] yielded an IC50 of 15 µM.

The values above are taken from patent US6958345B2, “2-hydroxymethylcyclopropylidene methylpurines and -pyrimidines as antiviral agents” (The Regents of the University of Michigan, priority 1997, dated 2005).
